Results on 16 molecules are retold here after patent US11596639B2, “Substituted indole Mcl-1 inhibitors” (Vanderbilt University, priority 2016, dated 2023).

The target of one experiment is Mcl-1 (Homo sapiens (Human), UniProt Q07820). As to the kind of experiment: TR-FRET binding assay, FITC-Bak peptide and MBP-tagged Mcl-1. The conditions noted are these: read-out: Ki for Inhibition of Mcl-1 by TR-FRET assay. As for the experimental part:
Compounds are diluted in DMSO in a 16-point, semilog serial dilution scheme. […] The plate was mixed and incubated for 3 hours at room temperature. […] TR-FRET signal is plotted and IC50 and Ki values are calculated in the same manner as the fluorescence polarization anisotropy based competition assays.
(In TR-FRET formats the signal depends on donor and acceptor labels being close together.)

The test system of experiment [1] is H929 human cancer cell lines. As to the kind of experiment: Cellular viability / proliferation (Cell TiterGlo, 72 h). It is filed as cell-based. The conditions noted are these: Homo sapiens, NCI-H929, 72 h, read-out: GI50 on cellular proliferation of H929 human cancer cell lines, H929 cells, 72 h, Cell TiterGlo, 10% FBS. The method, boiled down: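 H929 cells plated at 1,000/well in 10% FBS medium received a 2-fold serial compound dilution (top 50 μM, DMSO <1%) 24 h later. After 72 h, viability was read by CellTiter-Glo luminescence. IC50 came from a four-parameter fit.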
A general note: In ATP-based viability assays light output follows the ATP content of the culture.

Some results are limits rather than exact numbers.

Sequence of Mcl-1 (Q07820 172-327): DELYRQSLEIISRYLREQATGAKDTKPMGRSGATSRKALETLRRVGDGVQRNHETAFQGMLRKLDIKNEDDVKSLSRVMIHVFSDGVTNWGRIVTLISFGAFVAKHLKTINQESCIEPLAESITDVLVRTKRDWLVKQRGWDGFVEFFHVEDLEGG

With `Cc1cc(OCCCc2c3n(c4c(-c5c(C)nn(C)c5C)c(Cl)ccc24)[C@H](C)CN(c2cccc4c(C(=O)O)ccnc24)C3=O)cc(C)c1Cl` [Example 661, (R)-8-(7-chloro-10-(3-(4-chloro-3,5-dimethylphenoxy)propyl)-4-methyl-1-oxo-6-(1,3,5-trimethyl-1H-pyrazol-4-yl)-3,4-dihydropyrazino[1,2-a]indol-2(1H)-yl)quinoline-4-carboxylic acid], at Mcl-1, the Ki was determined as 0.23 nM. Further, in experiment [1], the GI50 stood at 2400 nM.

For `COCCOc1cc(N2C[C@@H](C)n3c(c(CCCOc4cc(C)c(Cl)c(C)c4)c4ccc(Cl)c(-c5c(C)n[nH]c5C)c43)C2=O)c2c(c1)cc(C(=O)O)n2C` [Example 716, (R)-7-(7-chloro-10-(3-(4-chloro-3,5-dimethylphenoxy)propyl)-6-(3,5-dimethyl-1H-pyrazol-4-yl)-4-methyl-1-oxo-3,4-dihydropyrazino[1,2-a]indol-2(1H)-yl)-5-(2-methoxyethoxy)-1-methyl-1H-indole-2-carboxylic acid], the Ki on Mcl-1 is less than 0.2 nM. Further, the GI50 in experiment [1] worked out at 550 nM.

Consider `Cc1cc(OCCCc2c3n(c4c(-c5c(C)nn(C)c5C)c(Cl)ccc24)[C@H](C)CN(c2cc(N(C)C)cc4cc(C(=O)O)n(C)c24)C3=O)cc(C)c1Cl` [Example 683, (R)-7-(7-chloro-10-(3-(4-chloro-3,5-dimethylphenoxy)propyl)-4-methyl-1-oxo-6-(1,3,5-trimethyl-1H-pyrazol-4-yl)-3,4-dihydropyrazino[1,2-a]indol-2(1H)-yl)-5-(dimethylamino)-1-methyl-1H-indole-2-carboxylic acid], for which the Ki at Mcl-1 was 0.21 nM. The GI50 in experiment [1] worked out at 250 nM.

For the molecule `COCCn1c(C(=O)O)cc2c(OC)ccc(N3C[C@@H](C)n4c(c(CCCOc5cc(C)c(Cl)c(C)c5)c5ccc(Cl)c(-c6c(C)n[nH]c6C)c54)C3=O)c21` [Example 728, (R)-7-(7-chloro-10-(3-(4-chloro-3,5-dimethylphenoxy)propyl)-6-(3,5-dimethyl-1H-pyrazol-4-yl)-4-methyl-1-oxo-3,4-dihydropyrazino[1,2-a]indol-2(1H)-yl)-4-methoxy-1-(2-methoxyethyl)-1H-indole-2-carboxylic acid], the inhibition constant Ki on Mcl-1 was less than 0.2 nM. Moreover, the GI50 in experiment [1] stood at 710 nM.

Take `Cc1cc(OCCCc2c3n(c4c(-c5c(C)nn(C)c5C)c(Cl)ccc24)[C@H](C)CN(c2cc(OC4CCN(C)C4)cc4cc(C(=O)O)n(C)c24)C3=O)cc(C)c1Cl` (stereo partly drawn) [Example 521, 7-((R)-7-chloro-10-(3-(4-chloro-3,5-dimethylphenoxy)propyl)-4-methyl-1-oxo-6-(1,3,5-trimethyl-1H-pyrazol-4-yl)-3,4-dihydropyrazino[1,2-a]indol-2(1H)-yl)-1-methyl-5-((1-methylpyrrolidin-3-yl)oxy)-1H-indole-2-carboxylic acid]: the Ki on Mcl-1 was less than 0.2 nM. Moreover, in experiment [1], the GI50 was 610 nM.

As for `Cc1cc(OCCCc2c3n(c4c(-c5c(C)nn(C)c5C)c(Cl)ccc24)[C@H](C)CN(c2cn(CC(=O)N(C)C)c4ccc(-c5ncccn5)cc24)C3=O)cc(C)c1Cl` [Example 637, (R)-2-(3-(7-Chloro-10-(3-(4-chloro-3,5-dimethylphenoxy)propyl)-4-methyl-1-oxo-6-(1,3,5-trimethyl-1H-pyrazol-4-yl)-3,4-dihydropyrazino[1,2-a]indol-2(1H)-yl)-5-(pyrimidin-2-yl)-1H-indol-1-yl)-N,N-dimethylacetamide], on Mcl-1, the Ki was 1.3 nM. The GI50 in experiment [1] turned out to be 530 nM.

Consider `Cc1cc(OCCCc2c3n(c4c(-c5c(C)nn(C)c5C)c(Cl)ccc24)[C@H](C)CN(c2cn(CC(=O)N(C)C)c4ccc(-c5ncn(C)n5)cc24)C3=O)cc(C)c1Cl` [Example 560, (R)-2-(3-(7-Chloro-10-(3-(4-chloro-3,5-dimethylphenoxy)propyl)-4-methyl-1-oxo-6-(1,3,5-trimethyl-1H-pyrazol-4-yl)-3,4-dihydropyrazino[1,2-a]indol-2(1H)-yl)-5-(1-methyl-1H-1,2,4-triazol-3-yl)-1H-indol-1-yl)-N,N-dimethylacetamide], for which the Ki on Mcl-1 was found to be 0.53 nM. Also, the GI50 in experiment [1] worked out at 270 nM.

Regarding `Cc1cc(N2C[C@@H](C)n3c(c(CCCOc4cc(C)c(Cl)c(C)c4)c4ccc(Cl)c(-c5c(C)ncnc5C)c43)C2=O)c2c(c1)cc(C(=O)O)n2Cc1cccc(C)n1` [Example 576, (R)-7-(7-chloro-10-(3-(4-chloro-3,5-dimethylphenoxy)propyl)-6-(4,6-dimethylpyrimidin-5-yl)-4-methyl-1-oxo-3,4-dihydropyrazino[1,2-a]indol-2(1H)-yl)-5-methyl-1-((6-methylpyridin-2-yl)methyl)-1H-indole-2-carboxylic acid], the Ki at Mcl-1 is less than 0.2 nM. For the same molecule, in experiment [1], the GI50 amounted to 350 nM.

Take `Cc1cc(N2C[C@@H](C)n3c(c(CCCOc4cc(C)c(Cl)c(C)c4)c4ccc(Cl)c(-c5c(C)nn(C)c5C)c43)C2=O)c2c(c1)cc(C(=O)O)n2CC(=O)N1CCOCC1` [Example 598, (R)-7-(7-chloro-10-(3-(4-chloro-3,5-dimethylphenoxy)propyl)-4-methyl-1-oxo-6-(1,3,5-trimethyl-1H-pyrazol-4-yl)-3,4-dihydropyrazino[1,2-a]indol-2(1H)-yl)-5-methyl-1-(2-morpholino-2-oxoethyl)-1H-indole-2-carboxylic acid]: on Mcl-1, the Ki is less than 0.2 nM. Besides, in experiment [1], the GI50 stood at 1900 nM.

As to `Cc1cc(OCCCc2c3n(c4c(-c5c(C)nn(C)c5C)c(Cl)ccc24)[C@H](C)CN(c2cn(CCN4CCOCC4)c4ccc(-c5ncn(-c6ncccn6)n5)cc24)C3=O)cc(C)c1Cl` [Example 720, (R)-7-Chloro-10-(3-(4-chloro-3,5-dimethylphenoxy)propyl)-4-methyl-2-(1-(2-morpholinoethyl)-5-(1-(pyrimidin-2-yl)-1H-1,2,4-triazol-3-yl)-1H-indol-3-yl)-6-(1,3,5-trimethyl-1H-pyrazol-4-yl)-3,4-dihydropyrazino[1,2-a]indol-1(2H)-one], at Mcl-1, the Ki was 0.51 nM. The GI50 in experiment [1] came out at 220 nM.

Regarding `COc1ccc(N2C[C@@H](C)n3c(c(CCCOc4cc(C)c(Cl)c(C)c4)c4ccc(Cl)c(-c5c(C)ncnc5C)c43)C2=O)c2c1cc(C(=O)O)n2Cc1cc(C)ccn1` [Example 520, (R)-7-(7-chloro-10-(3-(4-chloro-3,5-dimethylphenoxy)propyl)-6-(4,6-dimethylpyrimidin-5-yl)-4-methyl-1-oxo-3,4-dihydropyrazino[1,2-a]indol-2(1H)-yl)-4-methoxy-1-((4-methylpyridin-2-yl)methyl)-1H-indole-2-carboxylic acid], the Ki on Mcl-1 is less than 0.2 nM. For the same molecule, the GI50 in experiment [1] was less than 200 nM.

`COCCOCCn1c(C(=O)O)cc2cccc(N3C[C@@H](C)n4c(c(CCCOc5cc(C)c(Cl)c(C)c5)c5ccc(Cl)c(-c6c(C)nn(C)c6C)c54)C3=O)c21` [Example 634, (R)-7-(7-chloro-10-(3-(4-chloro-3,5-dimethylphenoxy)propyl)-4-methyl-1-oxo-6-(1,3,5-trimethyl-1H-pyrazol-4-yl)-3,4-dihydropyrazino[1,2-a]indol-2(1H)-yl)-1-(2-(2-methoxyethoxy)ethyl)-1H-indole-2-carboxylic acid]: the Ki on Mcl-1 is less than 0.2 nM. In addition, in experiment [1], the GI50 is 280 nM.

In the case of `Cc1cc(OCCCc2c3n(c4c(-c5c(C)nn(C)c5C)c(Cl)ccc24)[C@H](C)CN(c2cn(CCCl)c4ccc(-c5ncn(C)n5)cc24)C3=O)cc(C)c1Cl` [Example 529, (R)-7-Chloro-10-(3-(4-chloro-3,5-dimethylphenoxy)propyl)-2-(1-(2-chloroethyl)-5-(1-methyl-1H-1,2,4-triazol-3-yl)-1H-indol-3-yl)-4-methyl-6-(1,3,5-trimethyl-1H-pyrazol-4-yl)-3,4-dihydropyrazino[1,2-a]indol-1(2H)-one], the Ki on Mcl-1 was less than 0.2 nM. Also, the GI50 in experiment [1] was found to be 520 nM.

Turning to `Cc1cc(OCCCc2c3n(c4c(-c5c(C)nn(C)c5C)c(Cl)ccc24)[C@H](C)CN(c2cn(CCN4CCN(C)CC4)c4ccc(-c5ncccn5)cc24)C3=O)cc(C)c1Cl` [Example 568, (R)-7-Chloro-10-(3-(4-chloro-3,5-dimethylphenoxy)propyl)-4-methyl-2-(1-(2-(4-methylpiperazin-1-yl)ethyl)-5-(pyrimidin-2-yl)-1H-indol-3-yl)-6-(1,3,5-trimethyl-1H-pyrazol-4-yl)-3,4-dihydropyrazino[1,2-a]indol-1(2H)-one], the Ki at Mcl-1 is 1.8 nM. Besides, the GI50 in experiment [1] turned out to be 280 nM.

For the molecule `Cc1cc(N2C[C@@H](C)n3c(c(CCCOc4cc(C)c(Cl)c(C)c4)c4ccc(Cl)c(-c5c(C)nn(C)c5C)c43)C2=O)c2c(c1)cc(C(=O)O)n2Cc1cccc(N2CCCCC2)n1` [Example 505, (R)-7-(7-Chloro-10-(3-(4-chloro-3,5-dimethylphenoxy)propyl)-4-methyl-1-oxo-6-(1,3,5-trimethyl-1H-pyrazol-4-yl)-3,4-dihydropyrazino[1,2-a]indol-2(1H)-yl)-5-methyl-1-((6-(piperidin-1-yl)pyridin-2-yl)methyl)-1H-indole-2-carboxylic acid], the Ki at Mcl-1 came to 1.3 nM. Besides, the GI50 in experiment [1] came to 3200 nM.

`Cc1cc(OCCCc2c3n(c4c(-c5c(C)nn(C)c5C)c(Cl)ccc24)[C@H](C)CN(c2cn(C)c4ncc(C(=O)O)nc24)C3=O)cc(C)c1Cl` [Example 585, (R)-7-(7-chloro-10-(3-(4-chloro-3,5-dimethylphenoxy)propyl)-4-methyl-1-oxo-6-(1,3,5-trimethyl-1H-pyrazol-4-yl)-3,4-dihydropyrazino[1,2-a]indol-2(1H)-yl)-5-methyl-5H-pyrrolo[2,3-b]pyrazine-2-carboxylic acid]: the Ki at Mcl-1 was less than 0.2 nM. Also, the GI50 in experiment [1] was determined as 1500 nM.

What is called Ki is a measure of affinity in units of concentration, obtained from inhibition or displacement.
